Test results published in patent publication US20240391881A1, “PHARMACEUTICAL USE AND PREPARATION METHOD FOR SUBSTITUTED HETEROARYL PHTHALAZINE DERIVATIVE” (ORIGIANT PHARMACEUTICAL CO., LTD., priority 2021, published 2024).

Target: T1, NLRP3 inflammasomes (Homo sapiens, UniProt Q96P20)
T1 construct: endogenous in cells; host or cells: THP-1 human monocytic cells, PMA-differentiated, LPS-primed, nigericin-stimulated
Assay: THP-1 pyroptosis test (cell pyroptosis test)
Assay type: cell-based
Details: THP-1 cells differentiated with PMA, LPS stimulation, 10 μM nigericin, drug 0.001-10 μM, MTT absorbance 562 nm
Experimental: In vitro activity screening was performed on small molecule compounds targeting inhibition on NLRP3 inflammasomes using THP-1 human monocytic cells (THP-1). THP-1 can be induced to differentiate into macrophages by phorbol ester (PMA), and the macrophages M1 can be induced to polarize by lipopolysaccharide (LPS) to release cytokines such as TNF-α, and IL-6, so as to establish a typical inflammatory model.
THP-1 cells in a logarithmic growth phase were collected to prepare a 1×10^6 cells/mL cell suspension, PMA was added to achieve a final concentration of 300 ng/mL in the cell suspension, then 1×10^5 cells were inoculated to each well of a 96-well plate, and the cells were cultured in a 37° C., 5% CO2 cell incubator for 24 hours and induced to differentiate into macrophages.
The next day, LPS was added to stimulate and induce the cells to produce an inflammatory model. […] In the 200 μL system of the 96-well plate, the final concentration of each drug was 0.001-10 μM, and the final concentration of the nigericin was 10 μM.
Cell apoptosis protection rate=[(X−C0)/(C−C0)]×100%
wherein, C, C0 and X represent average absorbance values of the normal cell group, the blank control group, and the drug treatment group, respectively. Finally, cell survival curves were fitted by Graphpad Prism 5.0 software and EC50 values of the compounds to be tested in inhibiting pyroptosis caused by NLRP3 inflammasomes were calculated.

T1 sequence (Q96P20 whole entry): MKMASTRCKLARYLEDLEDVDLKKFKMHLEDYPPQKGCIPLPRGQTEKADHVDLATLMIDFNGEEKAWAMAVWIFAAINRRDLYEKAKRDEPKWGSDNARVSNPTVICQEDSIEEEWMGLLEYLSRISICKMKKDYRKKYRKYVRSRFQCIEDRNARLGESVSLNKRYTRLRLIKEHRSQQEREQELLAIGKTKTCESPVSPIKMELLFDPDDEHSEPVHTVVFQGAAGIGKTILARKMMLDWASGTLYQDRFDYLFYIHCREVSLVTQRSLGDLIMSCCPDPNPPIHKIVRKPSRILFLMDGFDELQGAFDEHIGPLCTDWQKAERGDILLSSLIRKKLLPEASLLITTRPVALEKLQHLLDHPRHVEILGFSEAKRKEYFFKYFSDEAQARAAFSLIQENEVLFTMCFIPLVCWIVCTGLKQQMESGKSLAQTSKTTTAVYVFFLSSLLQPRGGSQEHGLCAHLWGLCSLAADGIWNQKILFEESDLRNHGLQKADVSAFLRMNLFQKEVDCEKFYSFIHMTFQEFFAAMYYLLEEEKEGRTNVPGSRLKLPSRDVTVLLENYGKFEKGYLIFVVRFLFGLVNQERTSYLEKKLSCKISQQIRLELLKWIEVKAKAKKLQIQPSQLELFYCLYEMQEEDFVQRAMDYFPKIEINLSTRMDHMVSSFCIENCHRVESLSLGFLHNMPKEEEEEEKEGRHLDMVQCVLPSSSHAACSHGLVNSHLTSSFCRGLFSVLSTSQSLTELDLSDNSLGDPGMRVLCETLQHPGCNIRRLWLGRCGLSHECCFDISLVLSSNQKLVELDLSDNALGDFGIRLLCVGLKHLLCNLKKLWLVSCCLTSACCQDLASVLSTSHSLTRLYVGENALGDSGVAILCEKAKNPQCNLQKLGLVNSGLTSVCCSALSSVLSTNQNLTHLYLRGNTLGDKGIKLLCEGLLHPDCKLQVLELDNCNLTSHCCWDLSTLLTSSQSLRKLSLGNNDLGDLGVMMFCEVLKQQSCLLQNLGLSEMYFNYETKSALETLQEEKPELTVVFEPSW

Compound	EC50 [nM]
Oc1cc(C(F)(F)F)ccc1-c1nnc(N[C@@H]2CCCNC2)c2ccccc12 [Compound 22, (R)-2-(4-(piperidin-3-ylamino)phthalazin-1-yl)-5-(trifluoromethyl)phenol]	< 20
Cc1ccc(-c2nnc(N[C@@H]3CCCN(C)C3)c3ccccc23)c(O)c1 [Compound 40, (R)-5-methyl-2-(4-((1-methylpiperidin-3-yl)amino)phthalazin-1-yl)phenol]	< 20
CN(C)[C@H]1CC[C@H](Nc2nnc(-c3ccc(C(F)(F)F)cc3O)c3ccccc23)CC1 [Compound 18]	500 to 1000
CN1CCC(Nc2nnc(-c3ccc(F)cc3O)c3c2cnn3C)CC1 [Compound 70]	> 1000
Cc1cnc2c(-c3ccc(C(F)(F)F)cc3O)nnc(N[C@@H]3CCCN(C)C3)c2c1 [Compound 49, 2-(3-methyl-5-{[(3R)-1-methylpiperidin-3-yl]amino}pyridino[2,3-d]pyridazin-8-yl)-5-(trifluoromethyl)phenol]	< 20
C[C@@H](Nc1nnc(-c2ccc(C(F)(F)F)cc2O)c2ccccc12)c1ccccc1 [Compound 7, (R)-2-(4-((1-phenylethyl)amino)phthalazin-1-yl)-5-(trifluoromethyl)phenol]	> 1000
CN1CCC(CNc2nnc(-c3ccc(C(F)(F)F)cc3O)c3c2cnn3C)CC1 [Compound 75]	100 to 500
CCN1CCC[C@@H](Nc2nnc(-c3ccc(C(F)(F)F)cc3O)c3ccccc23)C1 [Compound 23, (R)-2-(4-((1-ethylpiperidin-3-yl)amino)phthalazin-1-yl)-5-(trifluoromethyl)phenol]	< 20
CN1CCC[C@@H](Nc2nnc(-c3ccc(C(F)(F)F)cc3O)c3c2nc(C(F)(F)F)n3C)C1 [Compound 58]	< 20
Cn1cnc2c(-c3ccc(C(F)(F)F)cc3O)nnc(NCCN3CCOCC3)c21 [Compound 77]	> 1000
CN1CCC(Nc2nnc(-c3ccc(C(F)(F)F)cc3O)c3ccccc23)CC1 [Compound 35, 2-(4-((1-methylpiperidin-4-yl)amino)phthalazin-1-yl)-5-(trifluoromethyl)phenol]	500 to 1000
Cc1ccc(-c2nnc(N[C@@H]3CCCN(C)C3)c3ncc(C)cc23)c(O)c1 [Compound 60, 5-methyl-2-(3-methyl-8-{[(3R)-1-methylpiperidin-3-yl]amino}pyridino[2,3-d]pyridazin-5-yl)phenol]	< 20
Cn1cnc2c(-c3ccc(C(F)(F)F)cc3O)nnc(NCC3CCOCC3)c21 [Compound 80]	> 1000
CN1CCC[C@@H](Nc2nnc(-c3ccc(C(F)(F)F)cc3O)c3cscc23)C1 [Compound 54, (R)-2-(4-((1-methylpiperidin-3-yl)amino)thieno[3,4-d]pyridazin-1-yl)-5-(trifluoromethyl)phenol]	< 20
CN1C[C@H](Nc2nnc(-c3ccc(C(F)(F)F)cc3O)c3c2cnn3C)CCC1=O [Compound 66]	100 to 500
Cc1ccc(-c2nnc(NCCN3CCOCC3)c3c2cnn3C)c(O)c1 [Compound 74]	> 1000
CN1CCC[C@@H](Nc2nnc(-c3ccc(C(F)(F)F)cc3O)c3ccncc23)C1 [Compound 17]	< 20
CCCCNc1nnc(-c2ccc(C(F)(F)F)cc2O)c2ccccc12 [Compound 11, 2-(4-(butylamino)phthalazin-1-yl)-5-(trifluoromethyl)phenol]	> 1000
C[C@@H](Nc1nnc(-c2ccc(C(F)(F)F)cc2O)c2ccccc12)c1ccc(F)cc1 [Compound 9, (R)-2-(4-((1-(4-fluorophenyl)ethyl)amino)phthalazin-1-yl)-5-(trifluoromethyl)phenol]	> 1000
Cc1ccc2c(-c3ccc(C(F)(F)F)cc3O)nnc(N[C@@H]3CCCN(C)C3)c2c1 [Compound 4, (R)-2-(6-methyl-4-((1-methylpiperidin-3-yl)amino)phthalazin-1-yl)-5-(trifluoromethyl)phenol]	< 20
COc1ccc2c(N[C@@H]3CCCN(C)C3)nnc(-c3ccc(C(F)(F)F)cc3O)c2c1 [Compound 5, (R)-2-(7-methoxy-4-((1-methylpiperidin-3-yl)amino)phthalazin-1-yl)-5-(trifluoromethyl)phenol]	< 20
CCc1cnc2c(-c3ccc(C(F)(F)F)cc3O)nnc(N[C@@H]3CCCN(C)C3)c2c1 [Compound 51, (R)-2-(3-ethyl-5-((1-methylpiperidin-3-yl)amino)pyridino[2,3-d]pyridazin-8-yl)-5-(trifluoromethyl)phenol]	20 to 100

Compound	EC50 [nM]
CN1CCC[C@@H](Nc2nnc(-c3ccc(C(F)(F)F)cc3C(F)F)c3c2cnn3C)C1 [Compound 88]	20 to 100
CN1CCC[C@@H](Nc2nnc(-c3ccc(C(F)(F)F)cc3O)c3c2ncn3C)C1 [Compound 37, (R)-2-(1-methyl-4-((1-methylpiperidin-3-yl)amino)-1H-imidazo[4,5-d]pyridazin-7-yl)-5-(trifluoromethyl)phenol]	< 20
Cn1cnc2c(N[C@H]3CCc4ncccc43)nnc(-c3ccc(C(F)(F)F)cc3O)c21 [Compound 78]	> 1000
C[C@H](Nc1nnc(-c2ccc(C(F)(F)F)cc2O)c2ccccc12)c1ccc(F)cc1 [Compound 10, (S)-2-(4-((1-(4-fluorophenyl)ethyl)amino)phthalazin-1-yl)-5-(trifluoromethyl)phenol]	> 1000
C[C@H](Nc1nnc(-c2ccc(C(F)(F)F)cc2O)c2ccccc12)c1ccccn1 [Compound 13, (S)-2-(4-((1-(pyridin-2-yl)ethyl)amino)phthalazin-1-yl)-5-(trifluoromethyl)phenol]	> 1000
Cc1cnc2c(N[C@@H]3CCCN(C)C3)nnc(-c3ccc(C(F)(F)F)cc3O)c2c1 [Compound 48, 2-(3-methyl-8-{[(3R)-1-methylpiperidin-3-yl]amino}pyridino[2,3-d]pyridazin-5-yl)-5-(trifluoromethyl)phenol]	< 20
COc1ccc2c(-c3ccc(C(F)(F)F)cc3O)nnc(N[C@@H]3CCCN(C)C3)c2c1 [Compound 6, (R)-2-(6-methoxy-4-((1-methylpiperidin-3-yl)amino)phthalazin-1-yl)-5-(trifluoromethyl)phenol]	< 20
CN1CC(Nc2nnc(-c3ccc(C(F)(F)F)cc3O)c3cnn(C)c23)CCC1=O (stereo not shown) [Compound 67]	100 to 500
Cc1ccc(-c2nnc(N[C@@H]3CCCN(C)C3)c3cnn(C)c23)c(O)c1 [Compound 65]	< 20
Cc1cnc2c(N[C@@H]3CCCN(C)C3)nnc(-c3ccc(OC(F)(F)F)cc3O)c2c1 [Compound 61, 2-(3-methyl-8-{[(3R)-1-methylpiperidin-3-yl]amino}pyridino[2,3-d]pyridazin-5-yl)-5-(trifluoromethoxy)phenol]	< 20
Oc1cc(C(F)(F)F)ccc1-c1nnc(N[C@H]2CCc3ncccc32)c2ccccc12 [Compound 30, (S)-2-(4-((6,7-dihydro-5H-cyclopenta[b]pyridin-5-yl)amino)phthalazin-1-yl)-5-(trifluoromethyl)phenol]	20 to 100
CN1CCC[C@@H](Nc2nnc(-c3cc(F)ccc3O)c3ccccc23)C1 [Compound 46, (R)-4-fluoro-2-(4-((1-methylpiperidin-3-yl)amino)phthalazin-1-yl)phenol]	20 to 100
Cc1cnc2c(N[C@@H]3CCCN(C)C3)nnc(-c3ccc(F)cc3O)c2c1 [Compound 55, (R)-5-fluoro-2-(3-methyl-8-((1-methylpiperidin-3-yl)amino)pyridino[2,3-d]pyridazn-5-yl)phenol]	< 20
Cc1ccc2c(-c3ccc(C(F)(F)F)cc3O)nnc(N[C@@H]3CCCN(C)C3)c2n1 [Compound 52, (R)-2-(2-methyl-8-((1-methylpiperidin-3-yl)amino)pyridino[2,3-d]pyridazin-5-yl)-5-(trifluoromethyl)phenol]	< 20
Cc1ccc2c(N[C@@H]3CCCN(C)C3)nnc(-c3ccc(C(F)(F)F)cc3O)c2c1 [Compound 3, (R)-2-(7-methyl-4-((1-methylpiperidin-3-yl)amino)phthalazin-1-yl)-5-(trifluoromethyl)phenol]	< 20
CCN1CCC[C@@H]1CNc1nnc(-c2ccc(C(F)(F)F)cc2O)c2ccccc12 [Compound 27, (R)-2-(4-(((1-ethylpyrrolidin-2-yl)methyl)amino)phthalazin-1-yl)-5-(trifluoromethyl)phenol]	500 to 1000
Cn1cnc2c(O[C@@H]3CCCN(CC(F)(F)F)C3)nnc(-c3ccc(C(F)(F)F)cc3O)c21 [Compound 84]	> 1000
CC(C)N1CCC[C@@H](Nc2nnc(-c3ccc(C(F)(F)F)cc3O)c3c2cnn3C)C1 [Compound 87]	< 20
CN1CCC[C@@H](Nc2nnc(-c3ccc(C(F)(F)F)cc3O)c3cc(P(C)(C)=O)ccc23)C1 [Compound 45, (R)-(4-(2-hydroxy-4-(trifluoromethyl)phenyl)-1-((1-methylpiperidin-3-yl)amino)phthalazin-6-yl)dimethylphosphine oxide]	500 to 1000
CN1CCC(Nc2nnc(-c3ccc(C(F)(F)F)cc3O)c3c2cnn3C)CC1 [Compound 68]	500 to 1000
Cn1cnc2c(NCCN3CCOCC3)nnc(-c3ccc(C(F)(F)F)cc3O)c21 [Compound 76]	> 1000
